pIC50: −log10 of the molar value. Like-named read-outs stand apart in the source and are kept apart here.
Columns and labels:
[1] = target: T1, human recombinant Monoacylglycerol Lipase (Homo sapiens, UniProt Q99685); assay: MAGL enzymatic assay (IC50; 7-HCA substrate added at T=0 min or T=30 min); type: biochemical; conditions: geometric mean of 2-5 determinations unless otherwise indicated
T1 sequence (Q99685 1-303): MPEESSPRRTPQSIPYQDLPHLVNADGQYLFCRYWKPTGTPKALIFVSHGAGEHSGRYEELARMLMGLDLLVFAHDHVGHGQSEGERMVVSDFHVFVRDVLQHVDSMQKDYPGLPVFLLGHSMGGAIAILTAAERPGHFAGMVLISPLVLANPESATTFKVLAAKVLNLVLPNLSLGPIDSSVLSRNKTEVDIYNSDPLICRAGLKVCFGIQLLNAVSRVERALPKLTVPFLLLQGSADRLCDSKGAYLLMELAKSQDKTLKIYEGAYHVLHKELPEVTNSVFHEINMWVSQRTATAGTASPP

[2] = target: T1, human recombinant Monoacylglycerol Lipase; assay: MAGL inactivation (kinact/KI from enzyme progress curves, T=0 min protocol); conditions: from plot of Kobs vs. compound concentration, geometric mean of 2-5 determinations (b: ≥6)
[3] = MAGL (T = 30 min) IC50, substrate 7-HCA added after 30 minute incubation (T=30 min)
[4] = substrate 7-HCA added immediately (T=0 min), read-out: MAGL (T = 0 min) IC50

Row | Compound | pIC50 [1, 3] | pIC50 [1, 4] | MAGL kinact/KI [2]
1 | O=C(O[C@H](CO)C(F)(F)F)N1CCC2(CC1)CC(Oc1ccnc(C(F)(F)F)c1)C2 [Example 59, (2R)-1,1,1-trifluoro-3-hydroxypropan-2-yl 2-{[2-(trifluoromethyl)pyridin-4-yl]oxy}-7-azaspiro[3.5]nonane-7-carboxylate] | 9.00 | 8.30 | 137000 1/s per M
2 | O=C(O[C@H](CO)C(F)(F)F)N1CCC2(CC1)CC(c1cccc(C(F)(F)F)n1)CO2 (single isomer, unassigned) [Example 14] | 9.00 | 8.30 | 124000^b 1/s per M
3 | CN(C1CC2(CCN(C(=O)O[C@H](CO)C(F)(F)F)CC2)C1)S(=O)(=O)c1ccccc1 [Example 45, (2R)-1,1,1-trifluoro-3-hydroxypropan-2-yl 2-[methyl(phenylsulfonyl)amino]-7-azaspiro[3.5]nonane-7-carboxylate] | 9.00 | 8.05 | 63200 1/s per M
4 | O=C(O[C@H](CO)C(F)(F)F)N1CCC2(CC1)CC(Oc1cccc(C(F)F)n1)C2 [Example 90, (2R)-1,1,1-trifluoro-3-hydroxypropan-2-yl 2-{[6-(difluoromethyl)pyridin-2-yl]oxy}-7-azaspiro[3.5]nonane-7-carboxylate] | 9.30 | 8.05 | 71700 1/s per M
5 | O=C(O[C@H](CO)C(F)(F)F)N1CCC2(CC1)CC(n1ncc3ccccc31)CO2 (single isomer, unassigned) [Example 62] | 9.00 | 8.00 | 18100 1/s per M
6 | O=C(O[C@H](CO)C(F)(F)F)N1CCC2(CC1)CC(n1cc(C3CC3)cn1)C2 [Example 49, (2R)-1,1,1-trifluoro-3-hydroxypropan-2-yl 2-(4-cyclopropyl-1H-pyrazol-1-yl)-7-azaspiro[3.5]nonane-7-carboxylate] | 9.00 | 7.89 | 77400 1/s per M
7 | O=C(O[C@H](CO)C(F)(F)F)N1CCC2(CC1)CC(c1cccc(C(F)(F)F)n1)CO2 (single isomer, unassigned) [Example 15] | 8.15 | 7.17 | 8230 1/s per M
8 | CC(C)(C)c1ccn(C2COC3(CCN(C(=O)O[C@H](CO)C(F)(F)F)CC3)C2)n1 (single isomer, unassigned) [Example 52] | 9.00 | 8.40 | 200000 1/s per M
9 | O=C(O[C@H](CO)C(F)(F)F)N1CCC2(CC1)CC(n1ccc(C(F)(F)F)n1)CO2 (single isomer, unassigned) [Example 53] | 9.00 | 8.05 | 66900 1/s per M
10 | N#Cc1cccc(C2CCOC3(CCN(C(=O)O[C@H](CO)C(F)(F)F)CC3)C2)c1 (single isomer, unassigned) [Example 73] | 8.52 | 7.59 | 8870 1/s per M
11 | Cc1cn(C2COC3(CCN(C(=O)O[C@H](CO)C(F)(F)F)CC3)C2)nc1C (single isomer, unassigned) [Example 54] | 8.40 | 7.68 | 26500 1/s per M
12 | O=C(O[C@H](CO)C(F)(F)F)N1CCC2(CC1)CC(c1ccccc1F)CO2 (single isomer, unassigned) [Example 26] | 9.00 | 8.10 | 87700 1/s per M
13 | N#Cc1ccc(C2COC3(CCN(C(=O)O[C@H](CO)C(F)(F)F)CC3)C2)cc1 (single isomer, unassigned) [Example 31] | 8.40 | 7.48 | 8060 1/s per M
14 | N#Cc1ccc(C2CC3(CCN(C(=O)O[C@H](CO)C(F)(F)F)CC3)C2)nc1 [Example 84, (2R)-1,1,1-trifluoro-3-hydroxypropan-2-yl 2-(5-cyanopyridin-2-yl)-7-azaspiro[3.5]nonane-7-carboxylate] | 7.82 | 6.84 | 4000 1/s per M
